Data published in patent US11702428B2, “Chemical compounds as inhibitors of interleukin-1 activity” (Genentech, Inc., priority 2017, dated 2023).
pIC50: −log10 of the molar value. Read-outs that look alike come from different tables or passages of the source.

Experiments:
[1] = molecular target: T1, NLRP3 inflammasome (Homo sapiens, UniProt Q96P20); experiment: NLRP3 inflammasome activation assay in PBMCs (LPS priming, nigericin), IL-1β by ELISA; format: cell-based; set-up: Human peripheral blood mononuclear cells (PBMCs); host or cells: primary human PBMCs from healthy donors; conditions: LPS, nigericin, read-out: PBMC IL-1β IC50
Protocol: (§1) Some of the following assays were used to determine the inhibitory activity of the compounds on the NLRP3 inflammasome using a common inflammasome activation stimuli-nigericin.
Human peripheral blood mononuclear cells (PBMCs), consisting of lymphocytes (T, B and NK cells), monocytes and dendritic cells, were freshly isolated from human peripheral blood from healthy donors. Cells were obtained through an IRB approved donor program by iXCells Biotechnologies where all the donors were tested for bacterial and viral infections. Cells were purified from peripheral blood using ficoll gradient centrifugation.
(§2) Cells were then stimulated with 10 uM Nigericin (Sigma Aldrich; InvivoGen) for 1.5 h. Plates were centrifuged at 1,500 rpm for 3 minutes to pellet cells and supernatant was transferred into new plates for subsequent experiments.
(§3) For ELISA assays cells were seeded into 96-well plates. Post study, supernatants were removed and the levels of mature IL-1β, IL-18 and TNFα (Quantikine ELISA, R&D systems) were measured in cell conditioned media by ELISA according to manufacturer's instructions.

[2] = molecular target: T1, NLRP3 inflammasome; experiment: NLRP3 inflammasome activation assay in Kupffer cells (LPS priming, nigericin), IL-1β/IL-18 by ELISA; format: cell-based; conditions: KCs; for pIC50: LPS, nigericin, read-out: KC IL-1β IC50
From the text: as §1
Human Kupffer cells (KCs), specialized liver macrophages residing in […], were obtained by gradient isolation from liver specimens harvested post-mortem by Samsara Sciences. Cells were obtained through an IRB approved donor program by Samsara Sciences and all donors tested negative for bacterial and viral infections.
as §2, §3

[3] = tested on: TNFα; experiment: TNFα levels of LPS and nigericin stimulated cells (counter-screen); format: cell-based, human
Protocol: as §3
TNFα levels of LPS and nigericin stimulated cells is measured by HTRF assay (Cisbio, Bedford, Mass.). […] Measuring TNFalpha production also serves as a technical counter-screen to eliminate compounds that interfere with the HTRF reagents. Thus compounds that inhibit both IL-1β and TNFα levels are triaged for either being non-selective for inflammasome or interfering with the HTRF readout.

[4] = tested on: LPS and nigericin stimulated cells; experiment: cells; format: cell-based; conditions: Homo sapiens, read-out: CTG protective IC50
Protocol: Viability of compound treated cells is measured using CellTiter-Glo® assay (Promega, Madison, Wis.) that measures the ATP content of cells which is proportional to the number of live cells within a well. This is a counter-screen to establish that the reduction of IL-1β levels in LPS and nigericin stimulated and compound treated cells is not due to cytotoxicity, but rather through the inhibition of the inflammasome pathway. Compounds inhibiting NRLP3 inflammasome activation ultimately increase the viability of LPS and nigericin stimulated cells by blocking NLRP3 mediated pyroptosis that would otherwise lead to cell lysis.

[5] = Human microsomal stability (Eh); format: in vitro ADME; conditions: hepatic extraction ratio; 0.5 mg/mL microsomal protein, 1 μM, NADPH; liver blood flow 20.7 mL/min/kg
Protocol: The stock solutions of test article and positive control were prepared at a concentration of 10 mM using DMSO as diluents. All stock solutions were then diluted to working concentrations at 0.25 mM with 70% acetonitrile. The cofactor used in this study was NADPH regenerating system, that was composed of 6.5 mM NADP, 16.5 mM G-6-P, 3 U/mL G-6-P D. The quench reagent was consisted of acetonitrile containing tolbutamide and propanolol (serve as internal standard). Incubation mixtures containing 0.5 mg/mL liver microsomal protein and […] test article/positive control in 100 mM potassium phosphate buffer.
The 0-minute samples were prepared by addition of an 80 μL aliquot of each incubation mixture to 300 μL quench reagent to precipitate proteins. The samples were vortexed, and then a 20 μL aliquot of the NADPH regenerating system was added in. The reaction was initiated by addition of 80 μL of the NADPH regenerating system to 320 μL of each incubation mixture. The final incubation conditions achieved in 400 μL are: 0.5 mg/mL microsomal protein, 1 μM test article/positive control, 1.3 mM NADP, 3.3 mM glucose 6 phosphate, 0.6 U/mL glucose 6 phosphate dehydrogenase. The mixtures were incubated in a 37° C. water bath with gentle shaking. A 100 μL aliquot of each mixture was removed at 10, 30, 90 minutes to a clean 96-well plate which contains 300 μL quench reagent to precipitate proteins, and centrifuged (4000×g, 10 min). 80 μL of supernatant are taken into 96-well assay plates pre-added with 160 μL ultrapure water, and then analyzed by LC-MS/MS. Hepatic extraction ratio (Eh) values were calculated from measured in vitro clearance assuming a human liver blood flow of 20.7 mL/min/kg. Eh values of <0.3 are indicative of compounds with favorable metabolic stability.

[6] = LPS and nigericin stimulated cells, CellTiter-Glo

T1 sequence (Q96P20 whole entry): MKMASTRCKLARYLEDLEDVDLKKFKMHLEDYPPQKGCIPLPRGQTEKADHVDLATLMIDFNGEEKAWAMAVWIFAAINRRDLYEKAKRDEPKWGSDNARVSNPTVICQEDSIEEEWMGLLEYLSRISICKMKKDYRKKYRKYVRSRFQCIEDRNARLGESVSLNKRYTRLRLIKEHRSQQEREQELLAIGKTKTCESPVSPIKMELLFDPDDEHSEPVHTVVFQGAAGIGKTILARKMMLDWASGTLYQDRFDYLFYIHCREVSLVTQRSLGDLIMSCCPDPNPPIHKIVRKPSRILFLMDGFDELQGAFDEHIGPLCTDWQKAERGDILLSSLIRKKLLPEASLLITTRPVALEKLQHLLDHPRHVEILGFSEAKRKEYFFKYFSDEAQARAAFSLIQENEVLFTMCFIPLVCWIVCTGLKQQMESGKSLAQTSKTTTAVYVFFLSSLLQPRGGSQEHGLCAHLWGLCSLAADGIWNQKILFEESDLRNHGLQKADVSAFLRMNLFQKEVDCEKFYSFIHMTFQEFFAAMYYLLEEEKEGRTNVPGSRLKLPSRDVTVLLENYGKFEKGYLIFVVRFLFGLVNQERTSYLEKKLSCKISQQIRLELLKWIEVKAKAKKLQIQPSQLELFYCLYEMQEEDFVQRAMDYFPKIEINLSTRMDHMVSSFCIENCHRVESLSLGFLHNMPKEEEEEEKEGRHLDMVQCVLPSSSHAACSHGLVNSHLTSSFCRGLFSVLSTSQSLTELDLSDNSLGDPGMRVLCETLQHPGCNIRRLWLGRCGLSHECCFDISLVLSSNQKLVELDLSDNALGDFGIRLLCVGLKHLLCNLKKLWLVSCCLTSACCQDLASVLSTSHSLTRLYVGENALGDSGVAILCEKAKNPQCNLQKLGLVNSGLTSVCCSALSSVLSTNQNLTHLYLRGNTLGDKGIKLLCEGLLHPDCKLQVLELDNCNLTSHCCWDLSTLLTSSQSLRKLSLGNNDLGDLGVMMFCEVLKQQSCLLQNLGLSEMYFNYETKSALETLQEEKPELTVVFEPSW

Row | Structure (SMILES) | pIC50 [1] | pIC50 [2] | TNFα IC50 (PBMC or KC) [3] | pIC50 [4, 6] | Human Microsomal Stability (Eh) [5] | pIC50 [4] | IL-1β production in Kupffer cells (FIG. 2) [2] | IL-18 production in Kupffer cells (FIG. 2) [2]
1 | CCO[C@H]1COc2c(S(=O)(=O)NC(=O)Nc3c4c(cc5c3CCC5)CCC4)cnn2C1 | > 7.00 | > 7.00 | No Curve | > 7.00 | 0.4 |  |  | 
2 | CN(C)[C@H]1COc2c(S(=O)(=O)NC(=O)Nc3c4c(cc5c3CCC5)CCC4)cnn2C1 [drawing 541] |  |  | No Curve |  | 0.2 | > 7.00 |  | 
3 | CN[C@H]1COc2c(S(=O)(=O)NC(=O)Nc3c4c(c(F)c5c3CCC5)CCC4)cnn2C1 | > 7.00 |  |  | > 7.00 | 0.2 |  |  | 
4 | O=C(Nc1c2c(cc3c1CCC3)CCC2)NS(=O)(=O)c1cnn2c1NCCC2 | > 7.00 | > 7.00 |  | > 7.00 | 0.2 |  |  | 
5 | O=C(Nc1c2c(cc3c1CCC3)CCC2)NS(=O)(=O)c1cnn2c1OCC(O)C2 (centres unmarked) [drawing 514] | > 7.00 | > 7.00 | No Curve | > 7.00 | 0.1 |  |  | 
6 | O=C(Nc1c2c(cc3c1CCC3)CCC2)NS(=O)(=O)c1cnn2c1OC[C@H](O)C2 | > 7.00 | > 7.00 | No Curve | > 7.00 | <0.1 |  |  | 
7 | O=C(Nc1c2c(cc3c1CCC3)CCC2)NS(=O)(=O)c1cnn2c1OCCC2 |  |  | No Curve |  | 0.3 | > 7.00 |  | 
8 | C[C@H]1COc2c(S(=O)(=O)NC(=O)Nc3c4c(cc5c3CCC5)CCC4)cnn2C1 | > 7.00 | > 7.00 | No Curve | > 7.00 |  |  |  | 
9 | O=C(Nc1c2c(cc3c1CCC3)CCC2)NS(=O)(=O)c1cnn2c1OCC1(COC1)C2 [Compound 5, N-((1,2,3,5,6,7-hexahydro-s-indacen-4-yl)carbamoyl)-5′,7′-dihydrospiro[oxetane-3,6′-pyrazolo[5,1-b][1,3]oxazine]-3′-sulfonamide] |  |  |  |  |  |  | inhibition | inhibition
10 | CCN[C@H]1COc2c(S(=O)(=O)NC(=O)Nc3c4c(cc5c3CCC5)CCC4)cnn2C1 | > 7.00 |  |  | > 7.00 | 0.2 |  |  | 
11 | O=C(Nc1c2c(cc3c1CCC3)CCC2)NS(=O)(=O)c1cnn2c1OCC1(CC1)C2 [drawing 528] | > 7.00 | > 7.00 |  | > 7.00 | 0.6 |  |  | 
12 | O=C(Nc1c2c(cc3c1CCC3)CCC2)NS(=O)(=O)c1cc2n(n1)CCOC2 | 6.00 to 7.00 |  | No Curve | 6.00 to 7.00 |  |  |  | 
13 | CN(C)C1COc2c(S(=O)(=O)NC(=O)Nc3c4c(cc5c3CCC5)CCC4)cnn2C1 (centres unmarked) |  |  |  |  | 0.2 | > 7.00 |  | 
14 | CC1COc2c(S(=O)(=O)NC(=O)Nc3c4c(cc5c3CCC5)CCC4)cnn2C1 (centres unmarked) | > 7.00 | > 7.00 |  | > 7.00 | 0.4 |  |  | 
15 | COC1COc2c(S(=O)(=O)NC(=O)Nc3c4c(cc5c3CCC5)CCC4)cnn2C1 (centres unmarked) [drawing 518] | > 7.00 | > 7.00 | No Curve | > 7.00 |  |  |  | 
16 | CN[C@H]1COc2c(S(=O)(=O)NC(=O)Nc3c4c(cc5c3CCC5)CCC4)cnn2C1 [drawing 566] |  |  | No Curve |  | <0.1 | > 7.00 |  | 
17 | CC1CCn2ncc(S(=O)(=O)NC(=O)Nc3c4c(cc5c3CCC5)CCC4)c2O1 (centres unmarked) [drawing 519] | 6.00 to 7.00 | > 7.00 | No Curve |  |  |  |  | 
18 | O=C(Nc1c2c(cc3c1CCC3)CCC2)NS(=O)(=O)c1cnn2c1OCC(N1CCCC1)C2 (centres unmarked) | > 7.00 |  |  | > 7.00 | 0.6 |  |  | 
19 | CNC1COc2c(S(=O)(=O)NC(=O)Nc3c4c(cc5c3CCC5)CCC4)cnn2C1 (centres unmarked) |  |  |  |  | 0.1 | > 7.00 |  | 
20 | Cc1c2c(c(NC(=O)NS(=O)(=O)c3cnn4c3OCCC4)c3c1CCC3)CCC2 | 6.00 to 7.00 |  | No Curve | 6.00 to 7.00 |  |  |  | 
